Among the test systems are EKVX NSCLC; KM12 colon; NCI-H226 lung; OVCAR-8 ovarian; SW-620 colon; U251 CNS; UO-31 renal; LOX IMVI melanoma; MCF7 breast; SF-539 CNS.
What all share (test): inhibition of tumour cell growth, NCI panel, 48 h

Our source for the TGI values is PubChem BioAssay (NCI).

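Method: 48-hour compound exposure of cells in 96-well plates, five concentrations, linear interpolation of endpoints. At the TGI there is no net growth.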

With `Clc1ccc2c(Cl)nc(-c3ccccc3)nc2c1`, the TGI in the assay with EKVX NSCLC is 91.1 µM; with KM12 colon, > 100 µM; in the assay on NCI-H226 lung, 55.9 µM; in the assay on OVCAR-8 ovarian it was > 100 µM; in the assay on SW-620 colon, > 100 µM; in the assay with U251 CNS, 35.1 µM. The TGI with UO-31 renal is > 100 µM.

As to `Nc1ccc(-c2nc3ccccc3s2)cc1F`, the TGI is 11.8 µM in the assay with EKVX NSCLC; > 100 µM with KM12 colon; > 100 µM in the assay on LOX IMVI melanoma; > 100 µM in the assay with MCF7 breast; > 100 µM with OVCAR-8 ovarian; > 100 µM in the assay with SW-620 colon. Also, the TGI in the assay with U251 CNS and with UO-31 renal was > 100 µM in each case.

Regarding `Cc1cc(=O)[nH]c(NN2C(Cl)C(=O)C2c2c(O)ccc3ccccc23)n1` (stereo not given), the TGI in the assay on EKVX NSCLC is > 100 µM; in the assay with KM12 colon, 61.5 µM; with LOX IMVI melanoma it was 32.7 µM; in the assay on NCI-H226 lung, 45.6 µM; in the assay on OVCAR-8 ovarian, > 100 µM; with SF-539 CNS, 41.1 µM. Further, the results for the TGI with SW-620 colon, in the assay on U251 CNS and in the assay on UO-31 renal were > 100 µM, 63.1 µM and > 100 µM, respectively.

Consider `COC(=O)C(CCSc1ccccc1)C(=O)OC`, for which the TGI in the assay with EKVX NSCLC, in the assay on KM12 colon, with MCF7 breast, in the assay on NCI-H226 lung, in the assay with OVCAR-8 ovarian and with SF-539 CNS was > 100 µM each time. Also, the TGI in the assay with SW-620 colon, with U251 CNS and with UO-31 renal was > 100 µM in each case.

For the molecule `CCN(CC)C(=O)N[C@@H](Cc1ccccc1)C(=O)NC`, the TGI in the assay with EKVX NSCLC, in the assay with KM12 colon, in the assay with LOX IMVI melanoma, in the assay with MCF7 breast, with NCI-H226 lung and with OVCAR-8 ovarian was > 100 µM in each case. Further, the TGI with SW-620 colon, with U251 CNS and in the assay with UO-31 renal was > 100 µM each time.

As to `N#Cc1nc(C2SCCCS2)oc1N`, the TGI in the assay with EKVX NSCLC, with KM12 colon, with LOX IMVI melanoma, in the assay with MCF7 breast, in the assay with OVCAR-8 ovarian and in the assay on SW-620 colon was > 100 µM each time. Also, the TGI in the assay on U251 CNS is > 100 µM.

Take `NC(N)=NCCCC(NCc1c2ccccc2[n+]([O-])c2ccccc12)C(=O)O` (stereo not given): the TGI in the assay on EKVX NSCLC, with KM12 colon, with LOX IMVI melanoma, in the assay on NCI-H226 lung, with OVCAR-8 ovarian and in the assay with SW-620 colon was > 100 µM in each case. In addition, the figures for the TGI with U251 CNS and in the assay on UO-31 renal were > 100 µM and 89.8 µM, respectively.

In the case of `C=CCN1C[C@@H](C)N([C@@H](c2ccccc2)c2ccc(C(=O)N(CC)CC)cc2)C[C@@H]1C`, the TGI in the assay on EKVX NSCLC, with KM12 colon, in the assay on MCF7 breast, in the assay on NCI-H226 lung, in the assay with OVCAR-8 ovarian and with SF-539 CNS was > 100 µM in each case. Besides, the TGI with SW-620 colon, in the assay with U251 CNS and in the assay with UO-31 renal was > 100 µM in each case.

For the molecule `CN(C)C(=O)C(F)(F)C(c1ccc(C(F)(F)F)cc1)C1C(=O)N(C)C(=O)N(C)C1=O` (stereo not given), the TGI with EKVX NSCLC, with KM12 colon, in the assay with LOX IMVI melanoma, with MCF7 breast, in the assay with NCI-H226 lung and in the assay on SW-620 colon was > 100 µM throughout. Further, the TGI in the assay on U251 CNS and with UO-31 renal was > 100 µM throughout.

Consider `CCCC(=O)[O-].CCCC(=O)[O-].N.N.N.N.[Co+3].[O-][Cl+3]([O-])([O-])[O-]`, for which the TGI with EKVX NSCLC, in the assay on KM12 colon, with LOX IMVI melanoma, in the assay with OVCAR-8 ovarian, in the assay on SF-539 CNS and with SW-620 colon was > 100 µM throughout. The TGI in the assay on U251 CNS and in the assay with UO-31 renal was > 100 µM throughout.

Consider `Cc1ccc(Nc2cc(=O)[nH]c(=O)[nH]2)cc1CS`, for which the TGI in the assay on EKVX NSCLC, with KM12 colon, in the assay on LOX IMVI melanoma, in the assay on NCI-H226 lung, in the assay on OVCAR-8 ovarian and with SF-539 CNS was > 100 µM in each case. In addition, the TGI with SW-620 colon, with U251 CNS and in the assay with UO-31 renal was > 100 µM in each case.

Turning to `COc1cc(O)c2c(c1O)C(=O)c1cc(C)ncc1C2=O`, the TGI with EKVX NSCLC is > 50 µM; in the assay with KM12 colon, > 50 µM; in the assay with LOX IMVI melanoma it was 45.2 µM; with NCI-H226 lung, > 50 µM; in the assay with OVCAR-8 ovarian, > 50 µM; with SF-539 CNS, > 50 µM. The TGI was > 50 µM in the assay on SW-620 colon, 30.7 µM in the assay with U251 CNS and 42.5 µM with UO-31 renal.

As to `ClCCCC1COc2ccccc2O1` (stereo not given), the TGI in the assay with EKVX NSCLC, in the assay with MCF7 breast, in the assay with NCI-H226 lung, in the assay with OVCAR-8 ovarian, with SF-539 CNS and in the assay on SW-620 colon was > 100 µM in each case. Further, the TGI in the assay on U251 CNS and in the assay with UO-31 renal was > 100 µM in each case.

With `N#CC1C(=O)NC2=C(CCOc3c2ccc2ccccc32)C1c1ccc(F)cc1` (stereo not given), the TGI in the assay with EKVX NSCLC, with KM12 colon, in the assay on MCF7 breast, in the assay on OVCAR-8 ovarian, in the assay on SF-539 CNS and in the assay on SW-620 colon was > 100 µM each time. Also, the TGI in the assay with U251 CNS and with UO-31 renal was 24.7 µM each time.

For the molecule `COC(=O)C1=C(OC(=O)/C(=C/c2c(F)cccc2F)c2ccccc2)C(C(=O)OC)[C@@]2(O)[C@@H](C(=O)OC)[C@H](C)C[C@@H]1[C@@H]2C(=O)OC` (stereo not given in full), the TGI in the assay with EKVX NSCLC, in the assay on KM12 colon, with LOX IMVI melanoma, in the assay with NCI-H226 lung, in the assay with OVCAR-8 ovarian and in the assay on SF-539 CNS was > 100 µM throughout. The TGI with SW-620 colon was > 100 µM; in the assay with U251 CNS, > 100 µM; with UO-31 renal, 8.26 µM.

For `CCCCCCCSCC1OC(n2cnc3c(N)ncnc32)C(O)C1O` (stereo not given), the TGI in the assay with EKVX NSCLC was 56.2 µM; in the assay with LOX IMVI melanoma it was > 100 µM; with NCI-H226 lung, > 100 µM; with OVCAR-8 ovarian it was 54.1 µM; in the assay on SF-539 CNS, > 100 µM; in the assay on SW-620 colon, 46.5 µM. In addition, the TGI with U251 CNS was > 100 µM.

Regarding `CCN(CC)CCNc1ccc2ncn3c4c(OC)ccc(=O)c4c(O)c1c23`, the TGI was > 100 µM with EKVX NSCLC; > 100 µM in the assay on KM12 colon; > 70.7 µM in the assay on MCF7 breast; > 100 µM with NCI-H226 lung; > 100 µM with OVCAR-8 ovarian; 31.3 µM with SF-539 CNS. Moreover, the values for the TGI with SW-620 colon, in the assay with U251 CNS and in the assay with UO-31 renal were > 43.8 µM, > 100 µM and > 100 µM, respectively.

On to `C=CCCCCn1c2ccccc2c2c(C)c3c[n+](C)ccc3c(C)c21`, for which the TGI is 1.6 µM in the assay with KM12 colon; 1.28 µM in the assay with OVCAR-8 ovarian; 1.83 µM with SF-539 CNS; 1.34 µM in the assay with SW-620 colon; 1.14 µM in the assay with U251 CNS; 19.4 µM in the assay with UO-31 renal.

Consider `C[N+]1(CCCC[N+]2(C)CCCCCCC2)CCCCCCC1`, for which the TGI with EKVX NSCLC, in the assay with KM12 colon, in the assay with LOX IMVI melanoma, in the assay with NCI-H226 lung, with OVCAR-8 ovarian and in the assay on SW-620 colon was > 100 µM in each case. The TGI in the assay on U251 CNS and in the assay on UO-31 renal was > 100 µM in each case.

Consider `CN(C)C=Nc1c(Br)cc(Br)c2nonc12`, for which the TGI with EKVX NSCLC, in the assay with KM12 colon, in the assay on MCF7 breast, in the assay on NCI-H226 lung, in the assay with OVCAR-8 ovarian and in the assay on SF-539 CNS was > 100 µM each time. The TGI in the assay with SW-620 colon and in the assay on UO-31 renal was > 100 µM throughout.

Regarding `CCCCCCCCCCCCCCC[C@@H](O)C[N+](C)(C)CCO`, the TGI stood at 37.4 µM in the assay with EKVX NSCLC; 1.4 µM in the assay on KM12 colon; 33.6 µM in the assay with MCF7 breast; 14 µM in the assay with NCI-H226 lung; 30 µM with OVCAR-8 ovarian; 21.8 µM in the assay on SF-539 CNS. The TGI in the assay with SW-620 colon is > 45.4 µM; in the assay with U251 CNS, 2.59 µM; in the assay on UO-31 renal it was 35.6 µM.

Regarding `O=C(Nn1c(-c2ccccc2)nc2ccccc2c1=O)c1ccc(O)cc1`, the TGI with EKVX NSCLC, with KM12 colon, in the assay on MCF7 breast, in the assay on NCI-H226 lung, in the assay on OVCAR-8 ovarian and in the assay with SF-539 CNS was > 100 µM in each case. In addition, the TGI in the assay with SW-620 colon, in the assay with U251 CNS and with UO-31 renal was > 100 µM throughout.

Take `COC(=O)CCSC1=CC(=O)c2nc3ccccc3c3ccnc1c23`: the TGI with EKVX NSCLC was 40.7 µM; in the assay with KM12 colon it was 34.8 µM; in the assay with MCF7 breast it was > 50.2 µM; with NCI-H226 lung, > 100 µM; in the assay with OVCAR-8 ovarian, > 56.3 µM; in the assay on SF-539 CNS it was 29.8 µM. The results for the TGI with SW-620 colon, in the assay with U251 CNS and in the assay on UO-31 renal were > 53.1 µM, > 100 µM and 31.7 µM, respectively.
